For assay [1], the target named is T1, Delta(24)-sterol reductase (Homo sapiens, UniProt Q15392).
T1 sequence (Q15392 whole entry): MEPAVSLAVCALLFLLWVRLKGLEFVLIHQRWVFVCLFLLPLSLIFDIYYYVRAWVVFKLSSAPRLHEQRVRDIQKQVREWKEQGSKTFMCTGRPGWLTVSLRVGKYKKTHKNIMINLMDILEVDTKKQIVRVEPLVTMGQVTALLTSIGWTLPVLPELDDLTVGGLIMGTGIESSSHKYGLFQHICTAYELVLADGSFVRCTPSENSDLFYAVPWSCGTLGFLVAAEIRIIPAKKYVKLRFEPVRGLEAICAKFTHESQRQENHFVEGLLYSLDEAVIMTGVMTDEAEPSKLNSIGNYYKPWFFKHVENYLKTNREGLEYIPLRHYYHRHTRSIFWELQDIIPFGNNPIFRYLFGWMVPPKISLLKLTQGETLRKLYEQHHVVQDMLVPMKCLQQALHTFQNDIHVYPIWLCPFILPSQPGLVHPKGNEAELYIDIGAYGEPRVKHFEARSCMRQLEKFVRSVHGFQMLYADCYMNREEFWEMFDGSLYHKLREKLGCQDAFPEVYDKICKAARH

For assay [2], the target named is STE20-like serine/threonine-protein kinase (Homo sapiens, UniProt Q9H2G2).
STE20-like serine/threonine-protein kinase, sequence (Q9H2G2 whole entry): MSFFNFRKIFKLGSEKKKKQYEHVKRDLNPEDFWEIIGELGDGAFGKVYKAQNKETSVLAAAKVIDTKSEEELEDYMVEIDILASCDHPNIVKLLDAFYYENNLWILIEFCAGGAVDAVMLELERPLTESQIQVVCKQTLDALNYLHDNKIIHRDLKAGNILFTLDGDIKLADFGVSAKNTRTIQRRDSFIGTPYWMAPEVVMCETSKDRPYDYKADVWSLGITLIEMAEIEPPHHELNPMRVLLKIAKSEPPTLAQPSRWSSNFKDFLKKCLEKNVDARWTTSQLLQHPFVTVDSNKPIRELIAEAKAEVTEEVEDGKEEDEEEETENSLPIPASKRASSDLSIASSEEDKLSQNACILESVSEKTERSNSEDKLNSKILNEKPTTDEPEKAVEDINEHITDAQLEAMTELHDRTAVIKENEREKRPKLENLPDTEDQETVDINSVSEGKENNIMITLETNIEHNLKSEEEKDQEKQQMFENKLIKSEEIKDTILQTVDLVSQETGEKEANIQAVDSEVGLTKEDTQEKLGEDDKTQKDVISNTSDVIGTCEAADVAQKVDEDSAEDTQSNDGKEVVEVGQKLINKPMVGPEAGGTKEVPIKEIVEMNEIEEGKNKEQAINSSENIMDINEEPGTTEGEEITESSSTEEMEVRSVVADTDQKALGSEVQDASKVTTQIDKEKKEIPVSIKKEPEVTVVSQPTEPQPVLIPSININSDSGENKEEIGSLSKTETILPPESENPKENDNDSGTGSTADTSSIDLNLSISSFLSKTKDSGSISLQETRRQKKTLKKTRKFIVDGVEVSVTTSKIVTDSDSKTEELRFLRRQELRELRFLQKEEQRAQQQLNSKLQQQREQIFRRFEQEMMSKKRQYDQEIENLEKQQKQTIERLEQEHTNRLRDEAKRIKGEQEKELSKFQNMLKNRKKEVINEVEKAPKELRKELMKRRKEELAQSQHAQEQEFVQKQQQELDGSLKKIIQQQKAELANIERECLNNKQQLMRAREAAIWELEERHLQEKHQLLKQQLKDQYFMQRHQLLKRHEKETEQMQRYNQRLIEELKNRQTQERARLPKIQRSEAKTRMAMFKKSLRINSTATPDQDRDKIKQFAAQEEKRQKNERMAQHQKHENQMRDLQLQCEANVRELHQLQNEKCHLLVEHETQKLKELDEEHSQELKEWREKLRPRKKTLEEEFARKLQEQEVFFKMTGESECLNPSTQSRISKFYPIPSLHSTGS
The target in assay [3] is Mitogen-activated protein kinase 1 (Homo sapiens, UniProt P28482).
Assay [4] addresses Glycogen synthase kinase-3 alpha (Homo sapiens, UniProt P49840).
The target in assay [5] is Casein kinase I isoform gamma-1 (Homo sapiens, UniProt Q9HCP0).
Casein kinase I isoform gamma-1, sequence (Q9HCP0 whole entry, canonical isoform): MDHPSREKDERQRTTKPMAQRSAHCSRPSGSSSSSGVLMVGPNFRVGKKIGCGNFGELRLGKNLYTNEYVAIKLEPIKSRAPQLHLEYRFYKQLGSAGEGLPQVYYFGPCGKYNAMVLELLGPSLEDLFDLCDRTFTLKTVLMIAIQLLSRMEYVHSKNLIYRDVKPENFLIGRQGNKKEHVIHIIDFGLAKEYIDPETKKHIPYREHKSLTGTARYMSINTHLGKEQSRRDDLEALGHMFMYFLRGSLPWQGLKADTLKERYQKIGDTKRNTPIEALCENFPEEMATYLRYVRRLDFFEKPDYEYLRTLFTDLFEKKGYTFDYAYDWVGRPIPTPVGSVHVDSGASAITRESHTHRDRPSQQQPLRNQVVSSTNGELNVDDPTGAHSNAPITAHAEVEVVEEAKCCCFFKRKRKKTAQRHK
The target of assay [6] is Protein-tyrosine kinase 2-beta (Homo sapiens, UniProt Q14289).
Protein-tyrosine kinase 2-beta, sequence (Q14289 whole entry): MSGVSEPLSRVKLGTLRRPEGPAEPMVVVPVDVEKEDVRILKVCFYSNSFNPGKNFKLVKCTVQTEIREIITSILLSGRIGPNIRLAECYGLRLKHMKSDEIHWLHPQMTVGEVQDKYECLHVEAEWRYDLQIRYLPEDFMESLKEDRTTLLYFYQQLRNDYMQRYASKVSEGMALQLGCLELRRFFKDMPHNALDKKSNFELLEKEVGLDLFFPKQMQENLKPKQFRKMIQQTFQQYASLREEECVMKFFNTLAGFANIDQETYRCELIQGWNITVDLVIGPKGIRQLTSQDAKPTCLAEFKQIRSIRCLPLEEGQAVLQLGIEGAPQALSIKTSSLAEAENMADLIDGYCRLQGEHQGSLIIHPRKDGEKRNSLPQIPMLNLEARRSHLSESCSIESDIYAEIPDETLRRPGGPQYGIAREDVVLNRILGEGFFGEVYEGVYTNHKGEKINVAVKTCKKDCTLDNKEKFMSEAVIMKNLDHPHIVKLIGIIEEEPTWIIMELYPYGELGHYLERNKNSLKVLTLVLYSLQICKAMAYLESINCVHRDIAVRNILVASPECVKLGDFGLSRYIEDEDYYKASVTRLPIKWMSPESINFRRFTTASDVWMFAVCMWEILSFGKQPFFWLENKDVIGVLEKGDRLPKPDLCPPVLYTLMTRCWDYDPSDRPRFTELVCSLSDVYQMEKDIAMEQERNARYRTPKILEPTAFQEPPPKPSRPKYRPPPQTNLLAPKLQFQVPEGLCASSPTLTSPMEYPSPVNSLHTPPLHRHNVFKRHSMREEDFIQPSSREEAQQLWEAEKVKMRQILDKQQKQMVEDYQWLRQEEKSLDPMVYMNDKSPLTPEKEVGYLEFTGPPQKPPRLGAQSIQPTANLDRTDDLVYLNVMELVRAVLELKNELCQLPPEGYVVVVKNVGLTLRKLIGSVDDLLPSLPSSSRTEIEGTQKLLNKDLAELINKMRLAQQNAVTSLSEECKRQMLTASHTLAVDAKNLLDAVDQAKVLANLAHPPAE
Assay [7] concerns the target Inosine-5'-monophosphate dehydrogenase 2 (Homo sapiens, UniProt P12268).
Assay [8] addresses T2, Glycogen phosphorylase, brain form (Homo sapiens, UniProt P11216).
T2 sequence (P11216 whole entry): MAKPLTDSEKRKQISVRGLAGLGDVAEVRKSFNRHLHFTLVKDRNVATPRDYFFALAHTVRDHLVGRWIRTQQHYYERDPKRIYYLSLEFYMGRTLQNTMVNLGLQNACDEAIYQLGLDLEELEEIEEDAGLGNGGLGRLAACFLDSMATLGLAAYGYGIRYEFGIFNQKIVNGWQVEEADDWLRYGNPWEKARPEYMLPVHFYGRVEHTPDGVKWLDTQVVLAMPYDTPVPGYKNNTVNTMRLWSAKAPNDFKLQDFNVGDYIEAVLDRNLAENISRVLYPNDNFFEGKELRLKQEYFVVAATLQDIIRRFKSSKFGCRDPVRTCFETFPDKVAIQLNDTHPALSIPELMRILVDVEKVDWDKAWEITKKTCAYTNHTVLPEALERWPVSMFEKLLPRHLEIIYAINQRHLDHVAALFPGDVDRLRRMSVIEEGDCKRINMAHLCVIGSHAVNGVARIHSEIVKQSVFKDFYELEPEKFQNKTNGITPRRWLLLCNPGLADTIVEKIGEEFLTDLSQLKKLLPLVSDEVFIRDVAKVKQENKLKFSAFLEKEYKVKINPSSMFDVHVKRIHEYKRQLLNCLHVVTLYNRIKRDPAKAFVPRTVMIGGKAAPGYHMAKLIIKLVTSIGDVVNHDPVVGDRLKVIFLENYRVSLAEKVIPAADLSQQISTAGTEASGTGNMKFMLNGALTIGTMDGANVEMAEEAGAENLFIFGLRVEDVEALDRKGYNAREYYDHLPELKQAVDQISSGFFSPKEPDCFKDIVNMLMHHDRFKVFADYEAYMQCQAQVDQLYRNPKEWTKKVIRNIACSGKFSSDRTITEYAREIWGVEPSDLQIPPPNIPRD

The next assay addresses GTP-binding protein 4 (Homo sapiens, UniProt Q9BZE4).
The target of assay [9] is Tyrosine-protein kinase ABL1 (Homo sapiens, UniProt P00519).
Tyrosine-protein kinase ABL1, sequence (P00519 whole entry): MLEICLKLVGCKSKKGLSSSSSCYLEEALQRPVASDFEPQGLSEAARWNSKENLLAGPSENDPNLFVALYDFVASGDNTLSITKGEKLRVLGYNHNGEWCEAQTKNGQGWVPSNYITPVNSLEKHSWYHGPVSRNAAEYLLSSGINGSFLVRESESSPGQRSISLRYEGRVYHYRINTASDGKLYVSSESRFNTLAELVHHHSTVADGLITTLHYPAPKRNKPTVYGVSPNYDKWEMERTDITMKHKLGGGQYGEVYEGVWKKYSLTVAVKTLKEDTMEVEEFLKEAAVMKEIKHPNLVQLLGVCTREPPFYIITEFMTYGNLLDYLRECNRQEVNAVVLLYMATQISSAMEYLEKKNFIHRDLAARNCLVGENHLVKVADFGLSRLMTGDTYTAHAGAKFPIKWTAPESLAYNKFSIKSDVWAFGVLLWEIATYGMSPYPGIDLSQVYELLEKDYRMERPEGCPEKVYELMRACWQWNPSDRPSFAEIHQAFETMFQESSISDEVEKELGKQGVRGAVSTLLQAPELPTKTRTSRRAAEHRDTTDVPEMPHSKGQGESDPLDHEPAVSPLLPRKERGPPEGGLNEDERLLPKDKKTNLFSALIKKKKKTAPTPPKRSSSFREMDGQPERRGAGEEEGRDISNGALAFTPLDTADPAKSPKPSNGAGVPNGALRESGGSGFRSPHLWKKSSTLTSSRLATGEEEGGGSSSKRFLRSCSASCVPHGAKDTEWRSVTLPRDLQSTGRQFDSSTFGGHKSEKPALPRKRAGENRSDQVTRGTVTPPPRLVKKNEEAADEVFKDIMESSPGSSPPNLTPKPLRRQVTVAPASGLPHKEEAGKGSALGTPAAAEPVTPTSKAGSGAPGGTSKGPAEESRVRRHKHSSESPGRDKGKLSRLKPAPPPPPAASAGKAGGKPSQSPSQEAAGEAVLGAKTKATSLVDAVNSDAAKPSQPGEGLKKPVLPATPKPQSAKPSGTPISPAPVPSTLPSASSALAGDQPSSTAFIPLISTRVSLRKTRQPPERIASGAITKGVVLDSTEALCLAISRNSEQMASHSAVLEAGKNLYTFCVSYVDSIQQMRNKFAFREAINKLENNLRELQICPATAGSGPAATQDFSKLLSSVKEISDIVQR
In assay [10] the target is Proto-oncogene tyrosine-protein kinase Src (Homo sapiens, UniProt P12931).
Proto-oncogene tyrosine-protein kinase Src, sequence (P12931 2-536 limits assumed): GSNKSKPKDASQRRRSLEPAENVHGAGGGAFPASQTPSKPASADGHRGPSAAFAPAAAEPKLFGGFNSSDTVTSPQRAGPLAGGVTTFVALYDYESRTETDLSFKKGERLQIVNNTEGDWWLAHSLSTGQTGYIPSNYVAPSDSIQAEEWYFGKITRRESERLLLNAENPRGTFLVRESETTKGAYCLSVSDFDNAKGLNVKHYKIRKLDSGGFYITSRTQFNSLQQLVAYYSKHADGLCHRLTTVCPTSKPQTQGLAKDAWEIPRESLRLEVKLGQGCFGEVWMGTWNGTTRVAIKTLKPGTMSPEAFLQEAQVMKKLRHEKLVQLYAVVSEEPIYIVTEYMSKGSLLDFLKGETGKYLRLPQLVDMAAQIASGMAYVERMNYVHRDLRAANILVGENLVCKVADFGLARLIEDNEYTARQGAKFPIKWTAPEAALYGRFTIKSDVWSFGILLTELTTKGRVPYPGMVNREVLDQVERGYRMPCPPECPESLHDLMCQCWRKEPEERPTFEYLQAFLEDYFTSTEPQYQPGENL
In assay [11] the target is Serine/threonine-protein kinase SIK2 (Homo sapiens, UniProt Q9H0K1).
Assay [12] concerns the target Ras-related protein Rab-6A (Homo sapiens, UniProt P20340).
Another assay concerns the target T3, ADP/ATP translocase 2 (Homo sapiens, UniProt P05141).
T3 sequence (P05141 whole entry): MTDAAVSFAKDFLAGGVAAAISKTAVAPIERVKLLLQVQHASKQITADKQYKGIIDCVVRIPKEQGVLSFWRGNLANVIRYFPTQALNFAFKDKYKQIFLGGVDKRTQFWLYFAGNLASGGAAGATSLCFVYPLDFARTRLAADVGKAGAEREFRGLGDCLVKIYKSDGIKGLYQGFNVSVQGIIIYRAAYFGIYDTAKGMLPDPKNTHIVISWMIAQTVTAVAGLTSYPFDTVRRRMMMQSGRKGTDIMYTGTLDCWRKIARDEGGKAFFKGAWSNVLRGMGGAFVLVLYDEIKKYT

The target in assay [13] is Ribosomal protein S6 kinase beta-1 (Homo sapiens, UniProt P23443).
Ribosomal protein S6 kinase beta-1, sequence (P23443 whole entry): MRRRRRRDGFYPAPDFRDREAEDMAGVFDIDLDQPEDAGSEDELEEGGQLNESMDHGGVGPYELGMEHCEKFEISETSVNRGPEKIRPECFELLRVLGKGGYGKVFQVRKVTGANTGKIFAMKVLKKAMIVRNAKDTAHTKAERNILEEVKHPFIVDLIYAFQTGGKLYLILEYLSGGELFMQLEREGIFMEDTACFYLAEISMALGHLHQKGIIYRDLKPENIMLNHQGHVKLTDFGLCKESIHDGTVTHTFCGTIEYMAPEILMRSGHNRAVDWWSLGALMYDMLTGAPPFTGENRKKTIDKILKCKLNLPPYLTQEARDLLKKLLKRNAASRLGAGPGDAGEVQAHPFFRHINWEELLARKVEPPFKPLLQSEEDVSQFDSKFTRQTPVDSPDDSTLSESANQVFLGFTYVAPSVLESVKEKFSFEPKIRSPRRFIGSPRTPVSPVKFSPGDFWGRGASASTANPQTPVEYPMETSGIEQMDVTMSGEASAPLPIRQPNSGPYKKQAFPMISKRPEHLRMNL

The structures appear in SMILES notation. The source made the active and inactive calls. Where only a bound is given, the exact number is not on record here.
Further: in the data inactive means no Kd found up to 30 µM.

Ras-related protein Rab-6A, sequence (P20340 whole entry): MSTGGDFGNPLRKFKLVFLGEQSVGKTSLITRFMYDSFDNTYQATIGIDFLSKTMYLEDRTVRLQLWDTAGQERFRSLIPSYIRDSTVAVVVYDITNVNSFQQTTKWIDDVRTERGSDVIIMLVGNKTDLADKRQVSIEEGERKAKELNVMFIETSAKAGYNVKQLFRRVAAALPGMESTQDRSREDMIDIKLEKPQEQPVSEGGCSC

Take `CCc1nc(C(N)=O)c(Nc2ccc(N3CCC(N4CCN(C)CC4)CC3)c(OC)c2)nc1NC1CCOCC1` [GILTERITINIB]: the Kd – broadly, the constant that tells how readily two partners part at equilibrium – in [1] is 0.432 µM (active); in assay [2], 0.068 µM (active); in assay [3] it was > 30 µM (inactive); in assay [4], > 30 µM (inactive); in assay [5] it was > 30 µM (inactive); in [6], 0.51 µM (active). Also, the Kd (in assay [7]; in assay [8]; on GTP-binding protein 4; in assay [9]; in [10]; in assay [11]) was > 30 µM (inactive) throughout. In addition, the values for the Kd (in assay [12]; at ADP/ATP translocase 2; in [13]) were > 30 µM (inactive), 0.451 µM (active) and > 30 µM (inactive), respectively.
For the molecule `Cc1cc(Nc2nc(N[C@@H](C)c3ncc(F)cn3)ncc2Cl)n[nH]1` [AZD-1480], the Kd in [1] is > 30 µM (inactive); in assay [2] it was 0.686 µM (active); in assay [3], > 30 µM (inactive); in assay [4] it was > 30 µM (inactive); in [5], > 30 µM (inactive); in assay [6], 1.88 µM (active). Further, the Kd (in [7]; in assay [8]; at GTP-binding protein 4; in [9]; in assay [10]; in [11]) was > 30 µM (inactive) each time. In addition, the Kd (in [12]; at ADP/ATP translocase 2; in assay [13]) was > 30 µM (inactive) each time.
With `Cc1ccc(C(=O)Nc2ccc(Oc3cc4cnn(C)c4cc3-c3cn[nH]c3)c(F)c2)c(=O)n1-c1ccc(F)cc1` [MERESTINIB], the Kd in assay [1], in assay [2], in assay [3], in assay [4], in assay [5] and in assay [6] was > 30 µM (inactive) throughout. The Kd (in assay [7]; in assay [8]; at GTP-binding protein 4; in [9]; in assay [10]; in assay [11]) was > 30 µM (inactive) throughout. In addition, the Kd (in [12]; on ADP/ATP translocase 2; in [13]) was > 30 µM (inactive) each time.
On to `C#Cc1cccc(Nc2ncnc3cc4c(cc23)OCCOCCOCCO4)c1` [ICOTINIB], for which the Kd in assay [1] is > 30 µM (inactive); in assay [2] it was 1.05 µM (active); in assay [3], > 30 µM (inactive); in [4], > 30 µM (inactive); in assay [5], > 30 µM (inactive); in [6], > 30 µM (inactive). Also, the Kd (in assay [7]; in [8]; on GTP-binding protein 4; in assay [9]; in assay [10]; in assay [11]) was > 30 µM (inactive) each time. Besides, the Kd (in [12]; at ADP/ATP translocase 2; in assay [13]) was > 30 µM (inactive) throughout.
For `COc1cc(F)c(F)c(Nc2ccc(I)cc2F)c1NS(=O)(=O)C1(C[C@H](O)CO)CC1` [REFAMETINIB], the Kd in assay [2], in [3], in assay [4], in assay [5], in assay [6] and in assay [7] was > 30 µM (inactive) in each case. In addition, the Kd (in assay [8]; on GTP-binding protein 4; in [9]; in assay [10]; in assay [11]; in assay [12]) was > 30 µM (inactive) in each case. The Kd (on ADP/ATP translocase 2; in assay [13]) was > 30 µM (inactive) in each case.
`O=C(O)c1ccc2c(c1)nc(Nc1cccc(Cl)c1)c1ccncc12` [SILMITASERTIB]: the Kd in assay [1] was > 30 µM (inactive); in assay [2], 0.22 µM (active); in [3], > 30 µM (inactive); in assay [4], 17.3 µM (active); in assay [5], > 30 µM (inactive); in assay [6], > 30 µM (inactive). The Kd in assay [7], in [8], in assay [9], in [10], in assay [11] and in assay [12] was > 30 µM (inactive) each time. Further, the Kd (at ADP/ATP translocase 2; in assay [13]) was > 30 µM (inactive) throughout.
Regarding `Cc1c(NC(=O)OC[C@@H]2COCCN2)cn2ncnc(Nc3ccc4c(cnn4Cc4cccc(F)c4)c3)c12` [AC-480], the Kd in [1], in [2], in [3], in assay [4], in assay [5] and in assay [6] was > 30 µM (inactive) each time. The Kd (in assay [8]; on GTP-binding protein 4; in assay [9]; in [10]; in assay [11]; in [12]) was > 30 µM (inactive) each time. Also, the Kd (on ADP/ATP translocase 2; in assay [13]) was > 30 µM (inactive) each time.
Regarding `CN1CCN(c2nc(C3=C(c4c[nH]c5ccccc45)C(=O)NC3=O)c3ccccc3n2)CC1` [SOTRASTAURIN], the Kd was > 30 µM (inactive) in assay [1]; > 30 µM (inactive) in assay [2]; > 30 µM (inactive) in assay [3]; 1.2 µM (active) in assay [4]; > 30 µM (inactive) in assay [5]; > 30 µM (inactive) in assay [6]. The Kd in [8] was > 30 µM (inactive); at GTP-binding protein 4 it was 8.2 µM; in assay [9], > 30 µM (inactive); in assay [10], > 30 µM (inactive); in assay [11], > 30 µM (inactive); in assay [12] it was > 30 µM (inactive). The Kd (at ADP/ATP translocase 2; in assay [13]) was > 30 µM (inactive) each time.
As to `NC[C@@](O)(c1ccc(Cl)cc1)c1ccc(-c2cn[nH]c2)cc1` [AT-13148], the Kd in assay [1], in assay [2], in assay [3], in assay [4], in assay [5] and in assay [6] was > 30 µM (inactive) throughout. The Kd (in [7]; in [8]; at GTP-binding protein 4; in [9]; in assay [10]; in [11]) was > 30 µM (inactive) each time. Moreover, the Kd (at ADP/ATP translocase 2; in assay [13]) was > 30 µM (inactive) in each case.

The values above are taken from ChEMBL document CHEMBL3991601, “The target landscape of clinical kinase drugs” (Science, 2017).
